# Assay results as given in US20250268876A1, “TREATMENT OF HIDRADENITIS SUPPURATIVA WITH ORISMILAST” (UNION THERAPEUTICS A/S, priority 2021, published 2025).
# pEC50, pIC50: −log10 of the molar value.
# Experiments:
# PDE4A1 = PDE4A1 (Homo sapiens, UniProt P27815); test: biochemical
# IFN-γ = test: Human whole blood cytokine secretion assay (TruCulture); type: cell-based; conditions: read-out: % inhibition at 20 nM, IFN-γ, mean of 3 experiments
# Experimental: (§1) TruCulture blood collection and incubation tubes were tested with fresh human whole blood with or without addition of 20 nM of the compound of formula (I). The best results were obtained using heparin-stabilised blood and anti-CD3/CD28 test tubes.
# IL-2 = test: as above; type: cell-based; conditions: read-out: % inhibition at 20 nM, IL-2, mean of 3 experiments
# Experimental: as §1
# TNF-α = test: as above; type: cell-based; conditions: read-out: % inhibition at 20 nM, TNF-α, mean of 3 experiments
# Experimental: as §1
# IL-13 = test: as above; type: cell-based; conditions: 20 nM
# Experimental: as §1
# IL-4 = test: as above; type: cell-based; conditions: read-out: % inhibition at 20 nM, IL-4, mean of 3 experiments
# Experimental: as §1
# IL-1 = test: as above; type: cell-based; conditions: read-out: % inhibition at 20 nM, IL-1, mean of 3 experiments
# Experimental: as §1
# IL-8 = test: as above; type: cell-based; conditions: 20 nM
# Experimental: as §1
# PDE4A10 = PDE4A10 (Homo sapiens, UniProt P27815); test: biochemical
# PDE4C2 = PDE4C2 (Homo sapiens, UniProt Q08493); test: IMAP fluorescence polarisation PDE4 subtype assay; type: biochemical
# human PBMC = test: Viability, serum-free, hPBMC, LPS (ATP); type: cell-based
# Experimental: Viability, Serum-Free, hPBMC, LPS
# The viability of the cells from the TNF-α assay is measured in the wells using the ATP vialight kit (Perkin Elmer, ATP-lite M, cat. no 6016949). The assay detects the amount of ATP using a bioluminescent method that utilizes an enzyme, luciferase, which catalyses the formation of light from ATP and luciferin according to the following reaction:
# The emitted light intensity is linearly related to the ATP concentration and is measured using a luminometer. The effect (inhibition of viability) of a test compound was calculated using equation 1:
# [formula] • where • So=Emitted light intensity reflecting the ATP concentration in the presence of 0.1% DMSO, • Sc=Emitted light intensity reflecting the ATP concentration in the presence of 10 μM Actinomycin in 0.1% DMSO and • Sx=Emitted light intensity reflecting the ATP concentration in the presence of test compound in 0.1% DMSO.
# This model describes a sigmoidal curve with an adjustable baseline, a. […]
# [formula] • where • C=concentration of test compound • % Effect=normalized response calculated as described in Equation 1 • Emin=min response as compound concentration approaches 0 • Emax=max response as concentration of tested compound is increasing • EC50=Concentration of tested compound giving a response in the middle of Emin and Emax • nH=Hill coefficient or curve slope.
# in vivo = conditions: ferret, po
# [1] = target: human recombinant PDE4D protein (Homo sapiens, UniProt Q08499); test: PDE4D scintillation proximity assay (SPA); type: biochemical; conditions: purified human recombinant PDE4D
# Experimental: PDE4 enzymatic activity was measured in a scintillation proximity assay using purified human recombinant PDE4D protein.
# Sequence of PDE4C2 (Q08493 107-712): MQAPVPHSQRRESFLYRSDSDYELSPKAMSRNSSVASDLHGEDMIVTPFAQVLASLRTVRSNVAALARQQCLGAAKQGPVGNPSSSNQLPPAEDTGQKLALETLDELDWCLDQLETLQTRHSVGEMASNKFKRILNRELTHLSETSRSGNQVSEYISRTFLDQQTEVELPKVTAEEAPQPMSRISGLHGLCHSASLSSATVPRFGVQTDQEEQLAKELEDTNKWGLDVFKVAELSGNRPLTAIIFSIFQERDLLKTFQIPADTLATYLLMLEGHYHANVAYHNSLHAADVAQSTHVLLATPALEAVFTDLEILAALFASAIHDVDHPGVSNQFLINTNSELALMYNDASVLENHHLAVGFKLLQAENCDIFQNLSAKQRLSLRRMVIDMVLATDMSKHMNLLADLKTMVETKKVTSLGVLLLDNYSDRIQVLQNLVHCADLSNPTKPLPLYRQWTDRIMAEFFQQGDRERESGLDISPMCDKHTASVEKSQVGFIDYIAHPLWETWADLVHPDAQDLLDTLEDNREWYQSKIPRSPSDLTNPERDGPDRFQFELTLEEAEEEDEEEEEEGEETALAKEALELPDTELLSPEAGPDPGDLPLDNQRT
# Sequence of human recombinant PDE4D protein (Q08499 whole entry): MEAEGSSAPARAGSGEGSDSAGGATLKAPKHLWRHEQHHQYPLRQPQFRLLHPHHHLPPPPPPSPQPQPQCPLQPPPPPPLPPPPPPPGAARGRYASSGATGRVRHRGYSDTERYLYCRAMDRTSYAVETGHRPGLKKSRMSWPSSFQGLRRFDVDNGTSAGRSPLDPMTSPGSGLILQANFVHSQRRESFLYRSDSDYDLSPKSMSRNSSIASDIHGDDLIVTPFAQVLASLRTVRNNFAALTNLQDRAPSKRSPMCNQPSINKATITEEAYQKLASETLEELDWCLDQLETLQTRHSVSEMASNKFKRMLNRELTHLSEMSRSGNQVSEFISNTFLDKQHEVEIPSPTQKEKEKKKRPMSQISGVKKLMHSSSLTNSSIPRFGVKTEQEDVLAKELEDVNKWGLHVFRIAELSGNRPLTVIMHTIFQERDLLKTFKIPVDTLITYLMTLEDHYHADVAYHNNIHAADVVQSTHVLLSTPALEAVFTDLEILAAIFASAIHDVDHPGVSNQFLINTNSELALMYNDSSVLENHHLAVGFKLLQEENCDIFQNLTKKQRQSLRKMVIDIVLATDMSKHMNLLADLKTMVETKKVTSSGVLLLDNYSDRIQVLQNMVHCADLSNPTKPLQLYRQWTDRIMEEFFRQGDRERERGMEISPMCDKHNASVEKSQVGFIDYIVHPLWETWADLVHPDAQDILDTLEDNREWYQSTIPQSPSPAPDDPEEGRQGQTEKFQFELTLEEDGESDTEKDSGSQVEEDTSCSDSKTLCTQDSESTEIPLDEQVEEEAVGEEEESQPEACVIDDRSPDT
# Sequence of PDE4A1 (P27815 1-647 isoform P27815-4): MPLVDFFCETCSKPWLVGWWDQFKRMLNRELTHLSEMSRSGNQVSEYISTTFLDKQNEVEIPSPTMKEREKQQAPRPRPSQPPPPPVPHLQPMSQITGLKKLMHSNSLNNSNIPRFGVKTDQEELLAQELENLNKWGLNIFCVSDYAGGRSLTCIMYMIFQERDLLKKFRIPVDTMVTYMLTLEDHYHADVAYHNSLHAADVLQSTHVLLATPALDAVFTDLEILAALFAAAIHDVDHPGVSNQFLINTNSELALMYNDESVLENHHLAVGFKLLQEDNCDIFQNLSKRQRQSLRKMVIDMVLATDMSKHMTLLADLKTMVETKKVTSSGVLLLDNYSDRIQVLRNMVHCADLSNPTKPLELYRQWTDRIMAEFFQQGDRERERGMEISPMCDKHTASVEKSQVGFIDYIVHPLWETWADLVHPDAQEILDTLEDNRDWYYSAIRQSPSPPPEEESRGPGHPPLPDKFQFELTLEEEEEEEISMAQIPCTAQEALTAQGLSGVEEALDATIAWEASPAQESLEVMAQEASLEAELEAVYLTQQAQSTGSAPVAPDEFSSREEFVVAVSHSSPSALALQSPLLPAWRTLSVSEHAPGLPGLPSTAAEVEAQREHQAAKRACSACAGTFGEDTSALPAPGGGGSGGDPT
# Sequence of PDE4A10 (P27815 1-825 isoform P27815-6): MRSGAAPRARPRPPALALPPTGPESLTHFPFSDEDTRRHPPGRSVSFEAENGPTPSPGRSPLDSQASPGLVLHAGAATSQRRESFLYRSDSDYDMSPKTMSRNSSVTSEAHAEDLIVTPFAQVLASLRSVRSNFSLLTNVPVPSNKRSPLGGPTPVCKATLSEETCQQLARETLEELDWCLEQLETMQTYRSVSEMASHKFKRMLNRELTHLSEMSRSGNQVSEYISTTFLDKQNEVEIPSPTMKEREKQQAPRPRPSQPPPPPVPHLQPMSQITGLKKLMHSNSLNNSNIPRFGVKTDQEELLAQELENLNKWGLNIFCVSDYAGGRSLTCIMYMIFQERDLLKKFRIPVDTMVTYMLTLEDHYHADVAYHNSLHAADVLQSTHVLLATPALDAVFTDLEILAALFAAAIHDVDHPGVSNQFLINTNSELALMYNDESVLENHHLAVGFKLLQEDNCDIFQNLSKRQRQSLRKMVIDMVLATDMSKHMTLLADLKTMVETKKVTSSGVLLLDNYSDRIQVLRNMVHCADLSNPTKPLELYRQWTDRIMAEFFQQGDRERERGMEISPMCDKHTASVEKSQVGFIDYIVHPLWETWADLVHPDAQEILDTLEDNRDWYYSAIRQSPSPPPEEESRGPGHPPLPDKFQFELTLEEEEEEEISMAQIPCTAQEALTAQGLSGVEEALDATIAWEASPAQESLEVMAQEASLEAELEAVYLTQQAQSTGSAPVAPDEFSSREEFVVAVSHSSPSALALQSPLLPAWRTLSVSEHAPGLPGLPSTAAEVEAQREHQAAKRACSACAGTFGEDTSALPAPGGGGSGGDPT
structure (smiles),measurement,setting,value
"O=C(Cc1c(Cl)c[n+]([O-])cc1Cl)c1ccc(OC(F)F)c2c1OC1(CCS(=O)(=O)CC1)O2 [Compound (I), 2-(3,5-Dichloro-1-oxido-pyridine-4-yl)-1-(7-difluoro-methoxy-2′,3′,5′,6′-tetrahydro-spiro[1,3-benzodioxole-2,4′-(4H)-thiopyran-1′,1′-dioxide]-4-yl)ethanone]",pIC50,PDE4A1,7.80
same,inhibition at 0.02 µM,IFN-γ,54%
same,inhibition at 0.02 µM,IL-2,50%
same,inhibition at 0.02 µM,TNF-α,60%
same,Inhibition of IL-13 secretion (in words),IL-13,not clearly inhibited
same,inhibition at 0.02 µM,IL-4,44%
same,inhibition at 0.02 µM,IL-1,40%
same,Inhibition of IL-8 secretion (in words),IL-8,not clearly inhibited
same,pIC50,PDE4A10,7.28
same,Inhibition (%),PDE4C2; compound 10^−7 M (100 nM),not significantly inhibited
same,inhibition at 0.0001 µM,PDE4C2; compound 10^−10 M,9%
same,"Viability Emax, %",human PBMC,7%
same,pEC50,"human PBMC; Homo sapiens, PBMC",< 5.00
same,NOAEL at 3 h,in vivo,3 mg/kg
same,pEC50,[1],7.83
